{"source": "patent US20080299109A1", "about": "“MECHANISM OF ASTRICYTE-NEURON SIGNALING” (Korea Institute of Science and Technology, priority 2007, published 2008)", "key": {"synaptic NMDA receptors": {"system": "synaptic NMDA receptors", "assay": "Evoked NMDA EPSC current-voltage relationship in CA1 pyramidal cells", "type": "cell-based, rat", "conditions": "30 nM thrombin, 0.2 mM Mg^2+", "method": "(§1) Young rats (Sprague-Dawley, age P15-P20) or mice (C57/B16, age P14-19) were deeply anesthetized with isoflurane and decapitated. The brain was rapidly removed and submerged in an ice-cold oxygenated artificial cerebrospinal fluid (ACSF) comprised of 130 mM NaCl, 24 mM NaHCO3, 3.5 mM KCl, 1.25 mM NaH2PO4, 1 mM CaCl2,3 mM MgCl2, and 10 mM glucose saturated with 95% O2/5% CO2, at pH 7.4.\nSlices were placed on the stage of an upright microscope underneath a platinum and nylon restraining grid, and superfused with oxygenated ACSF at room temperature (23° C.), some experiments are performed at 34° C. by a temperature controller (TC-344B, Warner, Hamden). The standard ACSF recording solution was comprised of 130 mM NaCl, 24 mM NaHCO3, 3.5 mM KCl, 1.25 mM NaH2PO4, 1.5 mM CaCl2, 1.5 mM MgCl2, and 10 mM glucose saturated with 95% O2/5% CO2, at pH 7.4. […]\nSynaptic responses were evoked by applying 0.1 ms current injection (1-100 μA) to a bipolar stimulating electrode placed in the stratum radiatum. Thrombin (Calbiochem) concentration was determined as described by Gingrich et al. (2000) using conversion of 1 U/ml=10 nM. […]\nEPSCs were evoked by electrical stimulation of Schaffer collateral axons in the CA1 stratum radiatum, and recorded from CA1 pyramidal neurons under voltage clamp. […]"}, "CA1 pyramidal cells": {"system": "CA1 pyramidal cells", "assay": "Current clamp membrane potential of CA1 pyramidal cells in hippocampal slices", "type": "cell-based, rat", "conditions": "30 nM thrombin", "method": "as §1\nThe hemisected brain was glued onto the stage of a vibrating microtome (Leica VT1000 S) and sections of 300 μm thickness were cut and stored in an incubation chamber at room temperature for about 1 h before use. For voltage clamp experiments, the solution used to fill the electrodes was comprised of 140 mM Cs-MeSO4, 10 mM HEPES, 7 mM NaCl, 4 mM Mg-ATP, and 0.3 mM Na3-GTP; the solution for current clamp recordings was comprised of 140 mM K-MeSO4, 10 mM HEPES, 7 mM NaCl, 4 mM Mg-ATP, and 0.3 mM Na3-GTP, and supplemented with 1 mM QX314; and 1 mM QX314 was omitted from some current clamp recordings (e.g., FIG. 9e).\nSlices were placed on the stage of an upright microscope underneath a platinum and nylon restraining grid, and superfused with oxygenated ACSF at room temperature (23° C.), some experiments are performed at 34° C. by a temperature controller (TC-344B, Warner, Hamden). The standard ACSF recording solution was comprised of 130 mM NaCl, 24 mM NaHCO3, 3.5 mM KCl, 1.25 mM NaH2PO4, 1.5 mM CaCl2, 1.5 mM MgCl2, and 10 mM glucose saturated with 95% O2/5% CO2, at pH 7.4. For some experiments 0.5-1 μM TTX, 10 μM NBQX, or 10-20 μM bicuculline were added to the extracellular solution, extracellular Mg^2+ was reduced to 5 μM, and/or extracellular Ca^2+ raised to 2 mM.\nVisually guided whole-cell patch recordings were obtained from CA1 pyramidal neurons in a voltage clamp or current clamp configuration using an Axopatch 200A (Axon Instruments) and a borosilicate patch pipette of 5-7 MΩ resistance. […] Records were filtered at 5 kHz and digitized at 20 kHz using a Digidata 1200 A/D board.\nSynaptic responses were evoked by applying 0.1 ms current injection (1-100 μA) to a bipolar stimulating electrode placed in the stratum radiatum. Thrombin (Calbiochem) concentration was determined as described by Gingrich et al. (2000) using conversion of 1 U/ml=10 nM. TFLLR and thrombin were applied by gravity perfusion at 1.0 ml/min, with extensive washing of perfusion lines, chamber, and objective between experiments to remove all residual thrombin, which has been reported to irreversibly cleave and PAR1 at a pM concentration. Removal of all thrombin ensured that PAR1 receptors were not pre-cleaved by residual thrombin prior to experimentation."}, "CA1 pyramidal neurons": {"system": "CA1 pyramidal neurons", "assay": "Ca2+ dye imaging of CA1 pyramidal neurons in hippocampal slices", "type": "cell-based, rat", "conditions": "thrombin 30 nM, TFLLR 30 μM, trans-ACPD 100 μM, (S)-3,5-dihydroxyphenylglycine 30 μM", "method": "as §1\nThe external solution contained 1 μM TTX. Throughout the experiments, −5 mV voltage steps (15 ms duration) were applied at 30 sec intervals from a holding potential of −70 mV to continuously monitor the holding current, series resistance, and membrane input resistance. After entering whole-cell mode, the CA1 pyramidal cells in slices were maintained for 20 min to allow for dye filling before image acquisition using a Princeton Micromax camera.\nAfter the baseline period, TFLLR (30-100 μM) was applied, and images were acquired every 3 sec with a 25 ms exposure to 450-490 nm light for each image. Ca^2+-dependent fluorescence intensity (520 nm) was measured in cell bodies and processes by using Axon Imaging Workbench (v2.2.1) and expressed as ratio image of (F-Fo)/Fo, where Fo is the fluorescence intensity before drug treatment."}, "PAR1−/− mouse astrocytes": {"system": "PAR1−/− mouse astrocytes", "assay": "Fura-2 intracellular Ca2+ imaging in cultured PAR1−/− astrocytes", "type": "cell-based", "conditions": "30 μM TFLLR, 30 nM thrombin, 10 μM ATP positive control", "method": "Cultured astrocytes were prepared from P0-P3 postnatal mice obtained from KIST SPF. The cerebral cortex was dissected free of adherent meninges, minced, and dissociated into single cell suspension by trituration through a Pasteur pipette. All procedures involving the use of animals were reviewed and approved by the Emory University IACUC. Dissociated cells were plated onto either 12 mm glass coverslips or 6 well plates coated with 0.1 mg/ml poly-D-lysine. Cells were grown in a DMEM media (Gibco, cat# 11960-044) supplemented with 25 mM glucose, 10% heat-inactivated horse serum, and 10% heat-inactivated fetal bovine serum, 2 mM glutamine, and 1000 units/ml penicillin-streptomycin. Cultures were maintained at 37° C. in a humidified 5% CO2-containing atmosphere. Astrocyte cultures prepared in this way were previously determined by GFAP (glial fibrillary acidic protein) staining to be greater than 95% astrocytes (Nicole et al., 2005). In some experiments, the culture media was replaced 24 hours after plating with DMEM with all added components except glutamine, and cultures were maintained for 4 days before experimentation in glutamine-free media.\nCultured astrocytes were incubated with 5 µM Fura2-AM in […] pluronic acid (Molecular Probes) for 30 min at room temperature, and subsequently transferred to a microscope stage for imaging. […]"}}}
{"substance": "thrombin", "values": [{"measurement": "Mg^2+ block of NMDA EPSCs at −60 mV", "setting": "synaptic NMDA receptors", "value": "significantly less Mg^2+ block"}, {"measurement": "membrane depolarization", "setting": "CA1 pyramidal cells; 1.5 mM Mg^2+, n=22", "value": "5.7±0.9", "unit": "mV"}, {"measurement": "depolarization of the membrane potential at 23° C.", "setting": "CA1 pyramidal cells; with or without APV 100 μM", "value": "5.8±1.7", "unit": "mV"}, {"measurement": "depolarization of the membrane potential at 34° C.", "setting": "CA1 pyramidal cells; with or without APV 100 μM", "value": "4.3±1.0", "unit": "mV"}, {"measurement": "somatic fluorescence of Ca^2+-sensitive dyes in CA1 pyramidal neurons", "setting": "CA1 pyramidal neurons", "value": "no significant increase"}, {"measurement": "intracellular Ca^2+ concentration in PAR1−/− astrocytes", "setting": "PAR1−/− mouse astrocytes", "value": "did not cause an increase"}]}
